Assay results: PMC8482776 (ACS Omega, 2021)
In brackets after ≈: the same amount, converted by molar mass. Several values for one entry are separate records, joined by “and”; a condition that tells them apart may be missing. Equal values may be shown once.

Key:
[1] = test system: Asp. nidulans (PTCC 5014); experiment: Microdilution MIC90, strain F; format: cell-based, Aspergillus nidulans; details: Aspergillus nidulans, PTCC5014, 48 h, filamentous fungi, 48 h at 37 °C, triplicate
[2] = test system: FLC-resistant clinical Candida isolate R4 (C. albicans); experiment: PMIC90, FLC-resistant isolate R4; format: cell-based; details: strain R4, planktonic
[3] = test system: Asp. niger (PTCC 5154); experiment: Microdilution MIC90, strain I; format: cell-based, Aspergillus niger; details: filamentous fungi, 48 h at 37 °C, triplicate
[4] = MTT cytotoxicity assay, A-431; format: cell-based, human; details: human, A-431 epidermoid carcinoma cells
[5] = test system: FLC-resistant clinical Candida isolate R1 (C. albicans); experiment: PMIC90, FLC-resistant isolate R1; format: cell-based; details: strain R1, planktonic
[6] = test system: FLC-resistant clinical C. albicans isolate (R1) biofilm; experiment: Antibiofilm MTT reduction assay, strain R1; format: cell-based; details: triplicate
[7] = test system: FLC-resistant clinical Candida isolate R5 (C. albicans); experiment: PMIC90, FLC-resistant isolate R5; format: cell-based; details: strain R5, planktonic
[8] = test system: C. parapsilosis (ATCC 22019); experiment: Microdilution MIC90, strain D; format: cell-based; details: 24 h
[9] = test system: C. glabrata (ATCC 90030); experiment: Microdilution MIC90, strain C; format: cell-based; details: yeast, 24 h at 37 °C, triplicate
[10] = test system: C. albicans (ATCC 10231); experiment: Murine model of systemic candidiasis; format: in vivo; details: neutropenic mice (n = 5), 15 mg/kg oral gavage, left kidney tissue
[11] = test system: C. albicans (ATCC 10231); experiment: Time-kill assay; format: cell-based; details: 24 h period; for time-kill effect at MIC: at MIC (0.5 μg/mL)
[12] = test system: Asp. fumigatus (PTCC 5009); experiment: Microdilution MIC90, strain H; format: cell-based; details: filamentous fungi, 48 h at 37 °C, triplicate
[13] = test system: FLC-resistant clinical C. albicans isolate (R2) biofilm; experiment: Antibiofilm MTT reduction assay, strain R2; format: cell-based; details: triplicate
[14] = test system: HDF normal cells; experiment: MTT cytotoxicity assay, HDF; format: cell-based, human; details: HDF normal cell line, up to 100 μg/mL, 48 h
[15] = test system: FLC-resistant clinical Candida isolate R3 (C. albicans); experiment: PMIC90, FLC-resistant isolate R3; format: cell-based; details: strain R3, planktonic
[16] = test system: human red blood cells (hRBCs); experiment: Hemolysis assay; format: cell-based; details: 100 μg/mL, 2 h at 37 °C
[17] = test system: T. mentagrophytes (PTCC 5054); experiment: Microdilution MIC90, strain M; format: cell-based; details: Trichophyton mentagrophytes, PTCC5054, 48 h
[18] = test system: M. canis (PTCC 5069); experiment: Microdilution MIC90, strain O; format: cell-based; details: Microsporum canis, PTCC5069, 48 h
[19] = test system: C. albicans (ATCC 10231); experiment: Microdilution MIC90, strain A; format: cell-based; details: strain A; for MIC90: 24 h, yeast, 24 h at 37 °C, triplicate; for fold greater potency than that of FLC: from MIC values
[20] = test system: FLC-resistant clinical Candida isolate R2 (C. albicans); experiment: PMIC90, FLC-resistant isolate R2; format: cell-based; details: strain R2, planktonic
[21] = test system: FLC-resistant clinical Candida isolates (R1–R7); experiment: PMIC, seven FLC-resistant clinical Candida isolates; format: cell-based; details: read-out: MIC (growth inhibition concentrations)
[22] = test system: PANC-1; experiment: MTT cytotoxicity assay, PANC-1; format: cell-based, human; details: 48 h; for toxicity (in words): PANC-1, at 30 and 60 μg/mL
[23] = test system: Microsporum gypseum (PTCC 5070); experiment: Microdilution MIC90, strain L; format: cell-based; details: filamentous fungi, 48 h at 37 °C, triplicate
[24] = test system: T. rubrum (PTCC 5143); experiment: Microdilution MIC90, strain K; format: cell-based, Trichophyton rubrum; details: Trichophyton rubrum, PTCC5143, 48 h, filamentous fungi, 48 h at 37 °C, triplicate
[25] = test system: Asp. terreus (PTCC 5023); experiment: Microdilution MIC90, strain J; format: cell-based, Aspergillus terreus; details: filamentous fungi, 48 h at 37 °C, triplicate
[26] = test system: T. schoenleinii (PTCC 5221); experiment: Microdilution MIC90, strain N; format: cell-based; details: Trichophyton schoenleinii, PTCC5221, 48 h
[27] = test system: C. tropicalis (PTCC 5028); experiment: Microdilution MIC90, strain E; format: cell-based; details: 24 h
[28] = test system: C. krusei (ATCC 6258); experiment: Microdilution MIC90, strain B; format: cell-based; details: for MIC90: 24 h, yeast, 24 h at 37 °C, triplicate; for fold greater potency than that of FLC: from MIC values
[29] = test system: FLC-resistant clinical Candida isolate R6 (C. albicans); experiment: PMIC90, FLC-resistant isolate R6; format: cell-based; details: strain R6, planktonic
[30] = test system: Asp. flavus (ATCC 204304); experiment: Microdilution MIC90, strain G; format: cell-based, Aspergillus flavus; details: Aspergillus flavus, ATCC204304, 48 h, filamentous fungi, 48 h at 37 °C, triplicate
[31] = test system: FLC-resistant clinical Candida isolate R7 (C. glabrata); experiment: PMIC90, FLC-resistant isolate R7; format: cell-based; details: strain R7, planktonic
[32] = test system: C. albicans (ATCC 10231); experiment: Membrane permeabilization assay; format: cell-based; details: 8b, 8c at 1 × MIC, 2 × MIC, 4 × MIC (0.5, 1, 2 μg/mL); AMB 1 μg/mL; 3 h at 28 °C
[33] = test system: A-431; experiment: MTT cytotoxicity assay, A-431; format: cell-based, human; details: 48 h, MTT
[34] = test system: dermatophyte isolates K–O; experiment: Microdilution MIC, dermatophyte isolates K–O; format: cell-based
[35] = Aspergillus niger, PTCC5154, 48 h
[36] = at 4 × MIC (2 μg/mL for 8b, 8c; 64 μg/mL for FLC)
[37] = Aspergillus fumigatus, PTCC5009, 48 h
[38] = Aspergillus terreus, PTCC5023, 48 h

| Structure (SMILES) | PMIC90 [2] [µg/mL] | MIC90 [3, 35] [µg/mL] | PMIC90 [5] [µg/mL] | PMIC90 [7] [µg/mL] | MIC90 [8] [µg/mL] | MIC90 ([9]; 24 h) [µg/mL] | kidney fungal burden, CFU/g (mean ± SD) [10] | MIC90 [12, 37] [µg/mL] | PMIC90 [15] [µg/mL] | MIC90 [17] [µg/mL] | MIC90 [18] [µg/mL] | MIC90 [19] [µg/mL] | PMIC90 [20] [µg/mL] | MIC [21] [µg/mL] | MIC90 [24] [µg/mL] | MIC90 [25, 38] [µg/mL] | MIC90 [26] [µg/mL] | MIC90 [27] [µg/mL] | MIC90 [28] [µg/mL] | PMIC90 [29] [µg/mL] | also measured |
| --- | --- | --- | --- | --- | --- | --- | --- | --- | --- | --- | --- | --- | --- | --- | --- | --- | --- | --- | --- | --- | --- |
| COc1ccc(NC(=O)Nc2nnc(SCC(O)(Cn3cncn3)c3ccc(F)cc3F)s2)cc1 (stereo not drawn) [Compound 8b, 1-(5-((2-(2,4-Difluorophenyl)-2-hydroxy-3-(1H-1,2,4-triazol-1-yl)propyl)thio)-1,3,4-thiadiazol-2-yl)-3-(4-methoxyphenyl)urea] | 1 | 2 to 4 (≈ 3.85 to 7.7 µM) | 0.25 | 2 | 2 (≈ 3.85 µM) | 1 to 16 (≈ 1.92 to 30.8 µM) | 414 CFU/g and 414 ± 67.7 ^b CFU/g | 2 to 4 (≈ 3.85 to 7.7 µM) | 2 | 4 (≈ 7.7 µM) | 8 (≈ 15.4 µM) | 0.5 (≈ 0.962 µM) | 0.5 | 0.25 to 2 (≈ 0.481 to 3.85 µM) | 2 (≈ 3.85 µM) | 2 to 4 (≈ 3.85 to 7.7 µM) | 8 (≈ 15.4 µM) | 1 (≈ 1.92 µM) | 0.5 (≈ 0.962 µM) | 2 | MIC90 [1]: 8 µg/mL (≈ 15.4 µM); MIC90 [3]: 4 μg·mL^–1; viability at 48 h, 100 μg/mL [4]: < 50%; SMIC90 (sessile minimum inhibitory concentration that reduced the metabolic activity of biofilms by 90%) [6]: 0.5 µg/mL; MIC90 [9]: 1 μg·mL^–1; time-kill effect at 4 × MIC [11, 36]: fungicidal activity of compound 8b significantly enhanced; time-kill effect at MIC [11]: fungicidal effect; MIC90 [12]: 1 μg·mL^–1; SMIC90 (sessile minimum inhibitory concentration that reduced the metabolic activity of biofilms by 90%) [13]: 1 µg/mL; toxicity (in words) [14]: none of the active compounds displayed toxicity; hemolysis (in words) [16]: limited hemolysis; fold greater potency than that of FLC [19]: 32 fold; toxicity (in words) [22]: no toxicity; MIC90 [23]: 4 μg·mL^–1; MIC90 [25]: 4 μg·mL^–1; fold greater potency than that of FLC [28]: 32 fold; MIC90 [30]: 8 µg/mL (≈ 15.4 µM); PMIC90 [31]: 1 µg/mL; cellular uptake of the PI dye [32]: none of our compounds 8b and 8c (at 1 × MIC, 2 × MIC, or 4 × MIC) induced the cellular uptake of the PI dye |
| O=C(Nc1ccc(F)cc1)Nc1nnc(SCC(O)(Cn2cncn2)c2ccc(F)cc2F)s1 (stereo not drawn) [Compound 8c, 1-(5-((2-(2,4-Difluorophenyl)-2-hydroxy-3-(1H-1,2,4-triazol-1-yl)propyl)thio)-1,3,4-thiadiazol-2-yl)-3-(4-fluorophenyl)urea] | 2 | 0.5 (≈ 0.985 µM) | 0.5 | 2 | 2 (≈ 3.94 µM) | 0.5 (≈ 0.985 µM) | 438 CFU/g and 438 ± 54.8 ^b CFU/g | 0.5 (≈ 0.985 µM) | 2 | 2 (≈ 3.94 µM) | 16 (≈ 31.5 µM) | 0.5 (≈ 0.985 µM) | 1 | 0.25 to 2 (≈ 0.493 to 3.94 µM) | 4 (≈ 7.88 µM) | 0.5 (≈ 0.985 µM) | 16 (≈ 31.5 µM) | 0.5 (≈ 0.985 µM) | 0.5 (≈ 0.985 µM) | 2 | MIC90 [1]: 16 µg/mL (≈ 31.5 µM); toxicity (in words) ([33]; A-431, 100 μg/mL): some toxicity levels; toxicity (in words) ([33]; A-431, up to 60 μg/mL): no toxicity; SMIC90 (sessile minimum inhibitory concentration that reduced the metabolic activity of biofilms by 90%) [6]: 1 µg/mL; time-kill effect at 4 × MIC [11, 36]: high fungicidal effect; time-kill effect at MIC [11]: fungistatic effect; SMIC90 (sessile minimum inhibitory concentration that reduced the metabolic activity of biofilms by 90%) [13]: 1 µg/mL; toxicity (in words) [14]: none of the active compounds displayed toxicity; hemolysis (in words) [16]: limited hemolysis; fold greater potency than that of FLC [19]: 32 fold; cell survival ([22]; PANC-1, 100 μg/mL): > 40%; toxicity (in words) [22]: no toxicity; fold greater potency than that of FLC [28]: 32 fold; MIC90 [30]: 16 µg/mL (≈ 31.5 µM); PMIC90 [31]: 2 µg/mL; cellular uptake of the PI dye [32]: none of our compounds 8b and 8c (at 1 × MIC, 2 × MIC, or 4 × MIC) induced the cellular uptake of the PI dye |
| OC(Cn1cncn1)(Cn1cncn1)c1ccc(F)cc1F [FLC, Fluconazole, reference compound] | >64 | 4 (≈ 13.1 µM) | >64 | >64 | 4 (≈ 13.1 µM) | 16 (≈ 52.2 µM) | 512 CFU/g and 512 ± 63.5 ^b CFU/g | 4 (≈ 13.1 µM) | >64 | 4 (≈ 13.1 µM) | 1 (≈ 3.27 µM) | 16 (≈ 52.2 µM) | >64 | ≥ 64 | 1 (≈ 3.27 µM) | 4 (≈ 13.1 µM) | 2 (≈ 6.53 µM) | 4 (≈ 13.1 µM) | 16 (≈ 52.2 µM) | >64 | MIC [34]: 1 to 4 µg/mL (≈ 3.27 to 13.1 µM); time-kill effect at 4 × MIC ([11]; […]; 64 μg/mL for FLC)): no significant effect; MIC90 [30]: 2 µg/mL (≈ 6.53 µM); PMIC90 [31]: >64 µg/mL |
